In ChEMBL document CHEMBL1201862, “PubChem BioAssay data set” (2004):
One block for each compound: values may come before it. The source made the active and inactive calls.

Assays:
[1] = target: Voltage-gated inwardly rectifying potassium channel KCNH2 (Homo sapiens, UniProt Q12809); assay: concentration-dependent hERG rescue from blockers – cell-based, thallium flux, dose response (AID 2121); type: ADME
[2] = target: Peroxisome proliferator-activated receptor gamma/Nuclear receptor coactivator 1 (Homo sapiens, UniProt P37231); assay: TR-FRET dose response biochemical High Throughput Screening assay for agonists of the steroid receptor coactivator 1 (SRC-1) recruitment by the peroxisome proliferator-activated receptor gamma (PPAR gamma): non-selective agonists. [Related pubchem assays (depositor defined):AID1300, AID1808, AID504735, AID631]; type: protein assay
[3] = target: Peroxisome proliferator-activated receptor gamma/Nuclear receptor coactivator 2 (Homo sapiens, UniProt P37231); assay: (§1) TR-FRET dose response biochemical High Throughput Screening assay for agonists of the steroid receptor coactivator 2 (SRC-2) recruitment by the peroxisome proliferator-activated receptor gamma (PPAR gamma): non-selective agonists. [Related pubchem assays: 1297, 1032 ]; type: functional
[4] = target: Peroxisome proliferator-activated receptor gamma/Nuclear receptor corepressor 2 (Homo sapiens, UniProt P37231+Q9Y618); assay: Counterscreen for NR2E3 inverse agonists: TR-FRET-based biochemical high throughput dose response assay to identify inverse agonists of the interaction between peroxisome proliferator-activated receptor gamma (PPARg) and nuclear receptor co-repressor 2 (NCOR2).; type: functional
[5] = target: Photoreceptor-specific nuclear receptor (Homo sapiens, UniProt Q9Y5X4); assay: ligands suppressing NR2E3 nuclear receptor activity – biochemical, TR-FRET, dose response (AID 463256); type: functional
[6] = target: Peroxisome proliferator-activated receptor gamma/Nuclear receptor coactivator 3 (Homo sapiens, UniProt P37231); assay: as §1, with “3 (SRC-3)” for “2 (SRC-2)”, “1301 (Confirmation screen.), 1048 (Primary screen.)]” for “1297, 1032 ]”; type: functional
[7] = target: Sphingosine 1-phosphate receptor 2 (Homo sapiens, UniProt O95136); assay: Dose Response Cell Based Assay for Antagonists of the S1P2 Receptor. [Related pubchem assays: 856, 736 ]; type: functional
[8] = target: Ubiquitin carboxyl-terminal hydrolase BAP1 (Homo sapiens, UniProt Q92560); assay: inhibition of BAP1 ubiquitin hydrolase activity – biochemical, dose response (AID 714); type: functional
[9] = target: T1, Aryl hydrocarbon receptor (Homo sapiens, UniProt P35869); assay: Luminescence-based cell-based high throughput dose response assay for activators of the Aryl Hydrocarbon Receptor (AHR). [Related pubchem assays: 2796 (Primary screen (AHR activators in singlicate)), 2845 (Confirmation screen (AHR activators in triplicate)), 434939 (Counterscreen (PXR activators in triplicate)), 2804 (Summary (AHR activators))]; type: ADME
T1 sequence (P35869 whole entry): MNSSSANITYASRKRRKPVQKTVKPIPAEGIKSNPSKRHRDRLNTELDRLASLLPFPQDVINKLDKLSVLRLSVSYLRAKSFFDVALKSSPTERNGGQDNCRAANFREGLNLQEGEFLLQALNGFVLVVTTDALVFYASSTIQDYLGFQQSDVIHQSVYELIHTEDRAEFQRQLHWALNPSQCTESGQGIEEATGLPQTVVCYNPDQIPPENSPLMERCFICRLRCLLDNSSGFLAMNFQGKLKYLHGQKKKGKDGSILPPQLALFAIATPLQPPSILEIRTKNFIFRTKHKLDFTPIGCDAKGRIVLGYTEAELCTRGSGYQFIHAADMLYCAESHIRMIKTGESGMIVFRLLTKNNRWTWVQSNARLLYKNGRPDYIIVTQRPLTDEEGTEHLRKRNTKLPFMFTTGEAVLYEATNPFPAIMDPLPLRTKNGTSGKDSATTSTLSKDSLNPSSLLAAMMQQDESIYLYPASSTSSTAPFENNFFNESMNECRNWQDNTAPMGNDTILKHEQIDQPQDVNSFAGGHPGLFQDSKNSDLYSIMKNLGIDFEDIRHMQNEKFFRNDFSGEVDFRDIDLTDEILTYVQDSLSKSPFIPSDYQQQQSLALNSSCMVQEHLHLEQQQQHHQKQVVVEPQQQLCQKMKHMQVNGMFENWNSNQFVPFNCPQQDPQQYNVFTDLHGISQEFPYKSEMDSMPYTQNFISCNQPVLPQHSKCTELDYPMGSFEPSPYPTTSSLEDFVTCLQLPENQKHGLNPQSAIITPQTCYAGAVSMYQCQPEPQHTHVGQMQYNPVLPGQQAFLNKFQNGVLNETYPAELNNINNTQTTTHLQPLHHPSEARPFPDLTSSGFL

[10] = target: E3 ubiquitin-protein ligase Mdm2 (Homo sapiens, UniProt Q00987); assay: MDM2-luc reporter signal enhancers, multi-concentration potency testing, MDM2 ubiquitin-protein ligase inhibitor program, whole-cell format, luminescence detection, 384-well microplate (AID 1394); type: functional;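 also: MDM2 E3 inhibitors raise luminescence so EC50 is for signal enhancement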
[11] = Luminescence Cell-Based Dose Retest to Confirm Inhibitors of Cancer Stem Cells. [Related pubchem assays (depositor defined):AID2717, AID2721]; type: functional; details: Homo sapiens
[12] = target: RNA-editing ligase 1, mitochondrial (Trypanosoma brucei brucei, UniProt P86926); assay: inhibition of trypanosome RNA editing ligase – biochemical, fluorescence, Trypanosoma brucei, dose response (AID 1117295); type: functional
[13] = PAX5 cellular inhibition readout – cell-based, plate reader, dry powder samples, selectivity assay for PAX8 inhibitor project, dose response (AID 743047); type: functional;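 also: HEK293 cells carrying a Pax5 driven CD19 promoter luciferase reporter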
[14] = OV-90 cell viability loss – plate reader, dry powder, SA8, PAX8 inhibitor project, dose response (AID 743149); type: functional, cell-based
[15] = IGROV1 cell killing – plate reader, dry powder samples, PAX8 inhibitor project, dose response (AID 743043); type: functional, cell-based; details: IGROV-1
[16] = PAX8-dependent cell viability loss – plate reader, dry powder, dose response (AID 743049); type: functional, cell-based
[17] = COV434 cell viability loss – plate reader, dry powder, SA7, cytotoxicity control for PAX8 inhibitor project, dose response (AID 743145); type: functional, cell-based
[18] = inhibitors acting on PAX2 in cells – cell-based, plate reader, dry powder samples, selectivity assay for PAX8 inhibitor project, dose response (AID 743048); type: functional;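 also: HEK293 cells carrying a WT1 promoter luciferase reporter driven by expressed Pax2; potency is for inhibition of Pax2 driven reporter signal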
[19] = target: Paired box protein Pax-8 (Homo sapiens, UniProt Q06710); assay: PAX8 transcriptional activity inhibition in RMG-I – RMG-I cells, luciferase, cherry-pick, dose response (AID 687027); type: functional, cell-based;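 also: luciferase reporter driven by Pax8 target thyroperoxidase promoter measured by SteadyGlo luminescence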
[20] = cells; type: functional, cell-based; details: INS-1E
[21] = IC50 of insulin release inhibition, rat insulinoma INS-1E line, 5 mM glucose, cell-based (AID 1117331); type: functional
[22] = Late stage results for the probe development effort to identify inhibitors of Plasmodium falciparum gametocytes: Luminescence-based cell-based high throughput dose response assay to identify inhibitors of viability of late stage Plasmodium falciparum gametocytes.; type: functional
[23] = viability loss in HepG2 liver cells – cell-based, luminescence, dry powder, set 9, cytotoxicity control, dose response (AID 743358); type: functional
[24] = cytotoxicity toward HCT116 cells – cell-based, CellTiter-Glo luminescence, IC50, dose response (AID 1117332); type: functional; details: HCT-116
[25] = cytotoxicity toward Colo320 cells – cell-based, CellTiter-Glo luminescence, IC50, dose response (AID 1117334); type: functional; details: COLO 320
[26] = non-specific 3'UTR reporter inhibition in Clone20-Shn3RL – cell-based, Renilla luciferase, cherry-picked, counter-screen for Shn3 inhibitor project, dose response (AID 624133); type: functional
[27] = rise of 4N DNA cells, HeLa – IC50, dose response (AID 1117351); type: functional, cell-based
[28] = rise of 2N DNA cells, HeLa – IC50, dose response (AID 1117349); type: functional, cell-based
[29] = HCT116 cell viability decrease, GSK3B pretreatment – CellTiter-Glo, IC50, dose response (AID 1117339); type: functional; details: HCT-116
[30] = target: Glucose-6-phosphate 1-dehydrogenase (Homo sapiens, UniProt P11413); assay: inhibition of Homo sapiens G6PD, dose series – biochemical, fluorescence, selectivity assay for P. falciparum G6PD inhibitor project, dose response (AID 504792); type: functional
[31] = loss of viability in HepG2 cells – cell-based, CellTiter-Glo, cherry-picked, cytotoxicity control for Shn3 inhibitor project, dose response (AID 624134); type: functional
[32] = reduction of Shn3 3'UTR-driven luciferase in osteoblasts – cell-based, Clone20 osteoblasts, firefly luciferase, cherry-picked, dose response (AID 624132); type: functional;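 also: firefly luciferase luminescence from reporter carrying the Shn3 3'UTR in osteoblasts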
[33] = Reduced DLD-1 viability, concentration-response, CellTiter-Glo luminescence (AID 1117352); type: functional

Chain of Paired box protein Pax-8 (Q06710 whole entry): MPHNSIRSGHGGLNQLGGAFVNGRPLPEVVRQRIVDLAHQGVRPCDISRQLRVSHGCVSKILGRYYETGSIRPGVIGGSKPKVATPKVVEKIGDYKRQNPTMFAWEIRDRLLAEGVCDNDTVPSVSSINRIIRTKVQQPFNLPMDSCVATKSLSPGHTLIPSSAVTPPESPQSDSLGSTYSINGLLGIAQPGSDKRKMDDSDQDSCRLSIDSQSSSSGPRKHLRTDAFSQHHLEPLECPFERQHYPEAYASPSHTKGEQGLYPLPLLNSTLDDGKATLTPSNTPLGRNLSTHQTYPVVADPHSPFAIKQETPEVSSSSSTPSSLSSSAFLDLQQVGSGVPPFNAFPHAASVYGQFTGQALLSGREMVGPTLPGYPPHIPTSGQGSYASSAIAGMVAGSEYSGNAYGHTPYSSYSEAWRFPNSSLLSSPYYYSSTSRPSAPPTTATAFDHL
Chain of Ubiquitin carboxyl-terminal hydrolase BAP1 (Q92560 whole entry): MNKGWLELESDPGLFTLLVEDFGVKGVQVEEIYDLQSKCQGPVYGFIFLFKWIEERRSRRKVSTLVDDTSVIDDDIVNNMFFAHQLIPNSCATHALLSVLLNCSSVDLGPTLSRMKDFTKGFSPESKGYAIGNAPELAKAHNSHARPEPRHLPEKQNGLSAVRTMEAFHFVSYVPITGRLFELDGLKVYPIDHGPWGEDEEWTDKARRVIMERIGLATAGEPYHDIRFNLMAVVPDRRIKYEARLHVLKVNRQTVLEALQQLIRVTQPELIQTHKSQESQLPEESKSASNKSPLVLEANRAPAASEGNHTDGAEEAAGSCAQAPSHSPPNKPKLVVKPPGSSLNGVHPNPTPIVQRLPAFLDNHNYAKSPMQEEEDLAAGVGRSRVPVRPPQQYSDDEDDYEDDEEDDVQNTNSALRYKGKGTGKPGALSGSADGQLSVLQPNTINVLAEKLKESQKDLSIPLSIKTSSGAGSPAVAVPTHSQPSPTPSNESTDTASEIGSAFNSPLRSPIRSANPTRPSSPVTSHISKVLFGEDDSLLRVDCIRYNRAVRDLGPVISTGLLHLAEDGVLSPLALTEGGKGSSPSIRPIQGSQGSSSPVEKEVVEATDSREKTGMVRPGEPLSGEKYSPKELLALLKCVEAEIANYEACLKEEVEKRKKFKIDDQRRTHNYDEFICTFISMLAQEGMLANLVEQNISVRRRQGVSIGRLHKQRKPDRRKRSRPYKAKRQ
Chain of Glucose-6-phosphate 1-dehydrogenase (P11413 whole entry): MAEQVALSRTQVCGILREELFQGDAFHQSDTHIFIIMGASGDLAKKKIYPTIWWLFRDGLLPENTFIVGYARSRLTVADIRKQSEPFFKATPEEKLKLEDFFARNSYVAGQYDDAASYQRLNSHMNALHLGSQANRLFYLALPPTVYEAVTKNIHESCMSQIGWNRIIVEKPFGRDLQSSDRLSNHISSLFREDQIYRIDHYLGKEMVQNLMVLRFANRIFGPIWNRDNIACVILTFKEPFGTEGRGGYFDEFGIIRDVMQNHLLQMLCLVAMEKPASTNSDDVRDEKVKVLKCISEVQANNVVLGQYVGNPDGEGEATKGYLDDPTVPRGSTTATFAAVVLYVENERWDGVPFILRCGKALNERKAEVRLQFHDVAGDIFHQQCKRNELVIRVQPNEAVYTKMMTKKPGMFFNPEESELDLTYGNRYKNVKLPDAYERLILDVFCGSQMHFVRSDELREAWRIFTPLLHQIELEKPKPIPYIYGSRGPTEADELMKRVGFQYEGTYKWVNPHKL
Chain of Photoreceptor-specific nuclear receptor (Q9Y5X4 whole entry): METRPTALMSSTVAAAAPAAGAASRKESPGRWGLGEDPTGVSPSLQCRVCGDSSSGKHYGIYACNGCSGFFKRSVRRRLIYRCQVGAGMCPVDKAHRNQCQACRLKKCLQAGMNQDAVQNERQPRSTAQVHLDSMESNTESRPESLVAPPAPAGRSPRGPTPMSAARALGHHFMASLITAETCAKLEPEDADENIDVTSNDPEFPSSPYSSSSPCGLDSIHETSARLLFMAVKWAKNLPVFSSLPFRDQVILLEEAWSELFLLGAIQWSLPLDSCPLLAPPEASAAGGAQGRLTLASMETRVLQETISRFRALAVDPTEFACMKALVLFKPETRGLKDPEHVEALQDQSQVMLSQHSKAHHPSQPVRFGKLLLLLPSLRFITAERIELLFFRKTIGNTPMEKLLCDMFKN
Chain of Sphingosine 1-phosphate receptor 2 (O95136 whole entry): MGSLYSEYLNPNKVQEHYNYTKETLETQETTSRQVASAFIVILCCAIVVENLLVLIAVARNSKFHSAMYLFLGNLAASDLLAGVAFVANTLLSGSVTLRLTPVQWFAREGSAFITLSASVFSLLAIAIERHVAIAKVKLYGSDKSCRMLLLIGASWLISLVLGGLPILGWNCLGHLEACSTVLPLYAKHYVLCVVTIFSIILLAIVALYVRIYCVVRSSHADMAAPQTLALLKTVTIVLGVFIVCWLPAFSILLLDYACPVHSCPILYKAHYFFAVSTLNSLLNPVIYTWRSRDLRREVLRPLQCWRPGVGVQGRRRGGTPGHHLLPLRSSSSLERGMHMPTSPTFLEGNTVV
Chain of Voltage-gated inwardly rectifying potassium channel KCNH2 (Q12809 whole entry): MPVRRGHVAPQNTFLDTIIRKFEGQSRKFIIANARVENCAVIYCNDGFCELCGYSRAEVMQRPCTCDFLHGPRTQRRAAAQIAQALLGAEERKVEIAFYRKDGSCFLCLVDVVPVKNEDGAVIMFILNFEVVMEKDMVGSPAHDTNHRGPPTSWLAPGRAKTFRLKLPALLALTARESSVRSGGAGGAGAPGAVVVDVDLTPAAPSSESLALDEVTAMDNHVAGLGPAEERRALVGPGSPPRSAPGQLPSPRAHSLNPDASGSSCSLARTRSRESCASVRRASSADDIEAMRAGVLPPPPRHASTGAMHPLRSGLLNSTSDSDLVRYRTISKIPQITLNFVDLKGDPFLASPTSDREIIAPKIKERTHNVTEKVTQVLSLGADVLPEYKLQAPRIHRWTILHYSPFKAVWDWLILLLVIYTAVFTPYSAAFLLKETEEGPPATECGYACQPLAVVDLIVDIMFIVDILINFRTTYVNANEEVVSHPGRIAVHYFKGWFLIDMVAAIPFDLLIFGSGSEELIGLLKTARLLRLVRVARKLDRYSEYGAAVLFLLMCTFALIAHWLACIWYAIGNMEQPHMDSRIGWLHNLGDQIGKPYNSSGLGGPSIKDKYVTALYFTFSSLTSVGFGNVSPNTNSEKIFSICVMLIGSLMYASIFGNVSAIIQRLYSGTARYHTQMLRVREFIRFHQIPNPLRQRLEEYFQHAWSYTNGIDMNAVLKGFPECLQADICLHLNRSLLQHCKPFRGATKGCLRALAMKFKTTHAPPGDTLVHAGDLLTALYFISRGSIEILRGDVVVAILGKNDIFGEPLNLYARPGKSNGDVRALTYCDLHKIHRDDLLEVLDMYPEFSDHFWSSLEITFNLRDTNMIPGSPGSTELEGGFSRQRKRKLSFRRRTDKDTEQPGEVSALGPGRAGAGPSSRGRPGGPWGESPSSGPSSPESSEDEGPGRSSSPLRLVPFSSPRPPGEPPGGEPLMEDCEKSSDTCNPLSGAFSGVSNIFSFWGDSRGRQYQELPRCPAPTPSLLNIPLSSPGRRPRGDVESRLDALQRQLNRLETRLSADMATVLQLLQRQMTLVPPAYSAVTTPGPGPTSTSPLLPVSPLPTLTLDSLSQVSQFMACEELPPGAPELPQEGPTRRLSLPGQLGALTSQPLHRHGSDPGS
Chain of E3 ubiquitin-protein ligase Mdm2 (Q00987 whole entry): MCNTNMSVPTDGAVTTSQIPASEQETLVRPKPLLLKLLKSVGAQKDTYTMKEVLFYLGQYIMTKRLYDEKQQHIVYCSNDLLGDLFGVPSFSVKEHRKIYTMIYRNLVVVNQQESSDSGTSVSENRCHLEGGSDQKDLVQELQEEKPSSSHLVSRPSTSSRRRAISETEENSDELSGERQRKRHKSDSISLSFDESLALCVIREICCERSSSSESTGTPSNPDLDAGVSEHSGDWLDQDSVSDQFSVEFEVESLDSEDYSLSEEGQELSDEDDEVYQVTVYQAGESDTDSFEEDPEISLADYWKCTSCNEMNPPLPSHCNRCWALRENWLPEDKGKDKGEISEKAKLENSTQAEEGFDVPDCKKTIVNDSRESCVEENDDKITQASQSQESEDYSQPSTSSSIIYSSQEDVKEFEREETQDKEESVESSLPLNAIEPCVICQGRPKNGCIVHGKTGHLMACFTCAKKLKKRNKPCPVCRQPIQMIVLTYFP
Chain of RNA-editing ligase 1, mitochondrial (P86926 whole entry): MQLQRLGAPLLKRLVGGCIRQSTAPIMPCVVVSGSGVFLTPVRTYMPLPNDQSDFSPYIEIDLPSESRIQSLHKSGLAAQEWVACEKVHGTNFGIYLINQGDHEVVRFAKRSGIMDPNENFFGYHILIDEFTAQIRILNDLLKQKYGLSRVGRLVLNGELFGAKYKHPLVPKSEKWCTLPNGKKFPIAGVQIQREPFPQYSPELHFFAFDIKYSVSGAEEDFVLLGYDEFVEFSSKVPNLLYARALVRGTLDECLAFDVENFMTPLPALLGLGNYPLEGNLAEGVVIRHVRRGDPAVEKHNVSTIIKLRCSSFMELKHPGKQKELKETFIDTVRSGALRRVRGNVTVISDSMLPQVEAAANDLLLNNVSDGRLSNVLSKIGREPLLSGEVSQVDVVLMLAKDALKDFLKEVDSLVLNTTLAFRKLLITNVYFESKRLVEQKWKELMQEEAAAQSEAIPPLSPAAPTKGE

Structure (SMILES): COc1ccc(C(=O)CC(=O)C(=O)Nc2ccccc2OC)cc1
- EC50 [1]: 8.33 µM (active)

- EC50 [2]: 11.6 µM (inactive)
- EC50 [3]: 11.1 µM (not active)
- IC50 [4]: 2.07 µM (active)
- IC50 [5]: > 39.8 µM (not active)
- EC50 [6]: > 79.4 µM (not active)
Structure (SMILES): Cc1cc2nc(-c3ccc(SCC(=O)Nc4ccc(S(=O)(=O)N5CCCC5)cc4)nc3)[nH]c2cc1C

- IC50 [7]: > 30 µM (not active)
Structure (SMILES): O=C(O)c1sc2cc(C(F)(F)F)cnc2c1-c1cccs1

- IC50 [8]: > 50 µM (not active)
Structure (SMILES): CSc1nc2c(cnn2-c2ccc(C)c(C)c2)c(=O)[nH]1

- EC50 [9]: 0.583 µM (active)
Structure (SMILES): O=C(Nc1cccc(Cl)c1)c1cccnn1

Structure (SMILES): N#Cc1c(N)nc2c(c1-c1cccc(O)c1)CCCCCC2
- EC50 [10]: 13.8 µM (not active)
- AC50 [11]: 5.01 µM (active)

- IC50 [12]: > 96.6 µM (inactive)
Structure (SMILES): COc1cccc(C(=O)NCCS(=O)(=O)NC(C)CCc2ccccc2)c1 (stereo not drawn)

Structure (SMILES): C[C@H](CO)N1C[C@H](C)[C@@H](CN(C)Cc2ccc(C(F)(F)F)cc2)OCCCC[C@H](C)Oc2ccc(NS(=O)(=O)c3ccc(F)cc3)cc2C1=O
- AC50 [13]: 24.3 µM (active)
- AC50 [14]: 68.3 µM (active)
- AC50 [15]: 40.5 µM (active)
- AC50 [16]: 37.7 µM (active)
- AC50 [17]: 55.1 µM (active)
- AC50 [18]: 18.8 µM (active)
- AC50 [19]: 6.28 µM (active)

Structure (SMILES): C#CCOC(C(=O)OCCN(C)C)(c1ccccc1)c1ccccc1
- IC50 [20]: 9.67 µM (inactive)
- IC50 [21]: 9.26 µM (inactive)

Structure (SMILES): O=C(NC1=NCCS1)c1cn(-c2ccccc2)nc1-c1cccnc1
- IC50 [22]: > 74.4 µM (inactive)

Structure (SMILES): CN1c2ccc(-c3cccc(F)c3)cc2[C@H]2[C@H](CCN2C(=O)Nc2ccccc2F)[C@H]1CO
- AC50 [23]: > 47 µM (inactive)

Structure (SMILES): O=C(Nc1ccc([N+](=O)[O-])cc1Cl)c1cc(Cl)ccc1O [NICLOSAMIDE]
- IC50 [24]: 0.00144 µM (active)
- IC50 [25]: 0.00826 µM (active)
- AC50 [26]: 0.837 µM (active)
- IC50 [27]: > 10 µM (inactive)
- IC50 [28]: > 10 µM (inactive)
- IC50 [29]: 0.00295 µM (active)
- IC50 [30]: > 80 µM (inactive)
- AC50 [31]: 1.62 µM (active)
- AC50 [32]: 3 µM (active)
- IC50 [33]: 0.00349 µM (active)
